# Results reported in patent US20210170000A1, “Larval preparation of Heligmosomoides polygyrus bakeri as well as methods of making it and uses thereof” (Helmholtz Zentrum München Deutsches Forschungszentrum für …, priority 2018, published 2021).
# Experiments:
# [1] = test system: human MDM; test: HpbE- or Hpb GDH-treated human MDM with inhibitors or neutralizing antibodies; assay type: cell-based
# Description: In order to identify immuneregulatory proteins present in HpbE, the inventors fractionated the extract by size exclusion chromatography and identified active fractions (8-11) based on the capacity to induce the COX metabolite TXB2 as well as IL-10 (FIGS. 4C and 4D). The inventors then identified proteins present in active and non-active fractions by mass spectrometry, thus highlighting Hpb glutamate dehydrogenase (GDH) as a major immuneregulatory candidate, which was uniquely present in active fractions of HpbE (summarized in FIG. 4E). In addition, an inhibitor of GDH (Bithionol), which is also used as an anti-helminthic, reduced the HpbE-triggered induction of PGE2 and IL-10 (FIG. 4F).
# As a new tool for studying the uptake, localization and function of Hpb GDH in vivo and in target cells in vitro, we generated monoclonal antibodies (mABs) specific for Hpb GDH (i.e. not cross-reactive with mammalian (human/mouse) GDH) (FIG. 5). Clone 4F8 was selected as the best candidate for further sub cloning and for testing in neutralization experiments. […]
# As HIF-1α is positively regulated by the p38 MAPK, the inventors studied the involvement of p38 signaling in the induction of type 2-suppressive mediators by HpbE. In human MDM, p38 was phosphorylated upon treatment with HpbE, correlating with the induction of COX-2 (FIG. 11A) and a p38 inhibitor (VX-702) abrogated the induction of IL-10, IL-1R and PGE2-synthetic enzymes (PTGS2 and PTGES) (FIG. 11B to D). In line with HIF-1α dependent regulation in murine BMDM, a pharmacological inhibitor of HIF-1α (acriflavine) attenuated the HpbE-induced expression of IL-10, IL-1β and COX pathway enzymes in human MDM (FIG. 11B to D). However, p38 and HIF-1α were not responsible for the modulation of the 5-LOX pathway (FIG. 11D).
# (§1) Monocyte-derived macrophages (MDM) or bone marrow derived macrophages (BMDM) were generated by culture in the presence of human or murine recombinant GM-CSF (10 ng/ml) (Miltenyi Biotech) and human recombinant TGF-β1 (2 ng/ml) (Peprotech) as previously described (Esser-von Bieren et al. (2013), PLoS Pathog., 9:e1003771; Dietz et al. (2016), J. Allergy Clin Immunol, 139(4):1343-1354.e6). On day 6, cells were harvested and used for further experiments.
# (§2) Eicosanoids were quantified by liquid chromatography tandem mass spectrometry (LC-MS/MS) similar to a previously published method (Henkel et al. (2018); Allergy, doi:10.1111/a11.13700). Cytokines were quantified using commercially available multiplex assays or ELISA kits according to the manufacturer's instructions.
# [2] = test system: human granulocytes; test: Granulocyte chemotaxis (trans-well) towards nasal polyp secretions; assay type: cell-based; conditions: for reduction of granulocyte chemotaxis in response to nasal polyp secretions: cells from AERD patients (n=6) and healthy controls (n=3), fluticasone propionate 1 μM, Montelukast 10 μM
# Experimental: Granulocyte recruitment (induced by chemokines or nasal polyp secretions) was assessed with or without pre-treatment with Hpb proteins by using trans-well assays. Migrated granulocytes were enumerated microscopically and by flow cytometry.
# PMN were resuspended to a concentration of 1×10^6 cells/ml in the presence of 100 ng/ml human GM-CSF (Miltenyi Biotech) and overnight stimulated with 10 μg/ml HpbE. When mentioned, PMN were pre-treated with 1 μM fluticasone propionate (Sigma-Aldrich), 10 μM montelukast (Cayman Chemical) or conditioned media from MDM stimulated overnight with 10 μg/ml Hpb extract+/−100 μM Indomethacin for 1 hour. PMN migration in response to nasal polyp secretions or a chemokine cocktail of 2 ng/ml RANTES, 20 ng/ml IL-8 (Miltenyi Biotech) and 2 ng/ml LTB4 (Cayman Chemical) was tested. Chemoattractants were placed in the lower wells of a chemotaxis plate (3 μm pore size; Corning). After mounting the transwell unit, […] PMN were added to the top of each well and migration was allowed for 3 hours at 37° C., 5% CO2. The number of cells migrating to the lower well was counted microscopically. In some experiments, manual counting was validated by flow cytometry.
# [3] = test system: human granulocytes (PMN); test: Mediator production by human granulocytes (PMN); assay type: cell-based
# Experimental: (§3) Human polymorphonuclear leukocytes (PMN) or peripheral blood mononuclear cells (PBMC) were isolated from the peripheral blood from healthy controls or patients suffering from AERD using density gradient centrifugation. For some experiments, cells were further separated into monocytes (CD14^+), neutrophils (CD16^+) or eosinophils. CD14^+ monocytes were differentiated into macrophages by culture for 6-8 days in the presence of GM-CSF and TGFbl. In most experiments, cells were treated with Hpb proteins at a concentration of 10 μg protein/ml.
# (§4) Mediator analysis in cell supernatants (+/−Hpb proteins) was performed by immunoassay for individual mediators (e.g. LTs, PGE2 or IL-10) or LC-MS/MS or Multiplex cytokine analysis for overall mediator profiles.
# Hpb proteins (e.g., total somatic homogenate of Hpb L3 larvae) broadly modulate mediator profiles of human myeloid cells.
# as §2
# [4] = test system: MDM from AERD patients; test: Eicosanoid production by MDM from AERD patients; assay type: cell-based, human
# Description: To validate the efficacy of HpbE in a relevant therapeutic indication, the inventors generated MDM from AERD patients and studied the effects of HpbE and FP on the mediator output.
# (§5) Human monocyte derived macrophages (MDM) were isolated, cultured and stimulated as described herein, e.g. in Example 3.
# (§6) Eicosanoids or cytokines were quantified by LC-MS/MS or immunoassays as described herein, e.g. in Example 3.
# [5] = test system: human monocyte derived macrophages (MDM); test: Mediator (eicosanoid, cytokine) production by human monocyte derived macrophages; assay type: cell-based
# Experimental: as §3, §4
# In order to study the effect of Hpb proteins on human macrophages, human monocyte derived macrophages (MDM) were stimulated with A23187 after 16 hrs. treatment with helminth proteins (e.g., total somatic homogenate of Hpb L3 larvae).
# as §5, §6, §1, §2
# [6] = purified recombinant His-tagged protein
compound,measurement,setting,value
CC(C)(C)c1ccc(S(=O)(=O)/C=C/C#N)cc1 [BAY 11-7085],"PGE2, IL-10 and IL-1β production as well as gene expression of PGE2-synthetic enzymes and IL-10","[1]; HpbE-treated human MDM, inhibition of NFκβ, 5 μM",significantly reduced
CCC(=O)O[C@]1(C(=O)SCF)[C@H](C)C[C@H]2[C@@H]3C[C@H](F)C4=CC(=O)C=C[C@]4(C)[C@@]3(F)[C@@H](O)C[C@@]21C [fluticasone propionate],reduction of granulocyte chemotaxis in response to nasal polyp secretions,[2],failed to reduce chemotactic responses
same,cell recruitment: migration of AERD patient granulocytes towards nasal polyp secretions ex vivo,[2]; pre-treatment of AERD granulocytes,not achieved
same,pro-inflammatory arachidonic acid (AA) and linoleic acid (LA) metabolites,[3],reduce
same,eicosanoid output of MDM from AERD patients,[4],no effects
same,eicosanoid output in MDM from healthy individuals,[5]; weak induction of PGE2,only minor effects
CS(=O)(=O)c1ccc(-c2noc(C(F)(F)F)c2-c2ccccc2)cc1 [CAY10404],HpbE-triggered COX-2 expression,[1]; COX inhibitors,reduced
same,suppression of the 5-LOX pathway,[1]; COX inhibitors,remained largely unaffected
CC(C)(O)c1ccccc1CC[C@@H](SCC1(CC(=O)O)CC1)c1cccc(/C=C/c2ccc3ccc(Cl)cc3n2)c1 [Montelukast],reduction of granulocyte chemotaxis in response to nasal polyp secretions,[2],10%
NC(=O)c1ccc(N(C(N)=O)c2c(F)cccc2F)nc1-c1ccc(F)cc1F [VX-702],"induction of IL-10, IL-1R and PGE2-synthetic enzymes (PTGS2 and PTGES)",[1]; p38 inhibitor,abrogated
Oc1c(Cl)cc(Cl)cc1Sc1cc(Cl)cc(Cl)c1O [Bithionol],HpbE-triggered induction of PGE2 and IL-10,"[1]; inhibitor of GDH, 20 μM",reduced
"Recombinant Hpb GDH: Recombinant His-tagged Hpb glutamate dehydrogenase (UniProtKB A0A183FP08, SEQ ID NO: 1) expressed in E. coli",PGE2 and IL-10 production by human macrophages,[5]; [6],induce
same,generation of pro-inflammatory cysLTs by human macrophages,[5]; [6],reduce
acriflavine,"HpbE-induced expression of IL-10, IL-1β and COX pathway enzymes",[1]; pharmacological inhibitor of HIF-1α,attenuated
COc1ccc2c(c1)c(CC(=O)O)c(C)n2C(=O)c1ccc(Cl)cc1 [indomethacin],HpbE-triggered COX-2 expression,[1]; COX inhibitors,reduced
same,suppression of the 5-LOX pathway,[1]; COX inhibitors,remained largely unaffected
same,"induction of IL-10, IL-1β and PTGES","[1]; COX inhibitors, CAY10404 10 μM",reduced
